pIC50: −log10 of the molar value.
Test system: Plasmodium berghei
Experiment: Luciferase/luciferin-expressing antifolate-resistant parasites were used to infect a culture of HepG2 cells that were pre-incubated with compounds. Infected hepatocytes emit light due to the luciferase reaction. Assay results are presented as the percent inhibition of light emission compared to control. […]
Type: functional
Details: sporozoite; for IC90: read-out: LUCIFERASE INFECTION ASSAY - IC90

Compound	IC90	also measured
CCc1cc(C(=O)Nc2ncccc2O)sc1C	> 10 µM	pIC50 (FFLUC_HILL_SLOPE 0.955, FFLUC_R_SQUARED 0.833, PBLUC_HILL_SLOPE 2.67, PBLUC_R_SQUARED 0.448, read-out: LUCIFERASE INFECTION ASSAY - IC50): 5.31
Cc1ccc(NC(=O)Cc2csc(NC(=O)C3CC3)n2)cc1Cl	> 10 µM	pIC50 (FFLUC_HILL_SLOPE 0.917, FFLUC_R_SQUARED 0.0768, HEPG2TOX_HILL_SLOPE 0.677, HEPG2TOX_R_SQUARED 0.444, PBLUC_HILL_SLOPE 1.82, PBLUC_R_SQUARED 0.301, read-out: LUCIFERASE INFECTION ASSAY - IC50): < 5.00
CN(/N=C/c1cc(Cl)cc(Cl)c1O)c1ccc([N+](=O)[O-])cn1	> 9.67 µM	pIC50 (FFLUC_HILL_SLOPE 1.05, FFLUC_R_SQUARED 0.5, read-out: LUCIFERASE INFECTION ASSAY - IC50): < 5.01
CC1CCc2c(sc3c2C(=O)NC(/C(Br)=C/c2ccccc2)N3)C1 (stereo not given)	3.94 µM	pIC50 (FFLUC_HILL_SLOPE 0.906, FFLUC_R_SQUARED 0.617, HEPG2TOX_HILL_SLOPE 7.13, HEPG2TOX_R_SQUARED 0.573, PBLUC_HILL_SLOPE 13.5, PBLUC_R_SQUARED 0.659, read-out: LUCIFERASE INFECTION ASSAY - IC50): 5.47
CC(C)(c1ccc(Oc2ccc(NC(=O)C3CC3(C)C)cc2)cc1)c1ccc(Oc2ccc(NC(=O)C3CC3(C)C)cc2)cc1 (stereo not given)	> 5.47 µM	pIC50 (FFLUC_HILL_SLOPE 0.986, FFLUC_R_SQUARED 0.483, PBLUC_HILL_SLOPE 0.525, PBLUC_R_SQUARED 0.295, read-out: LUCIFERASE INFECTION ASSAY - IC50): 5.63
Cc1cc(NC(C)C)n2ncc(-c3ccc(F)cc3)c2n1	5.57 µM	pIC50 (FFLUC_HILL_SLOPE 0.941, FFLUC_R_SQUARED 0.965, HEPG2TOX_HILL_SLOPE 0.182, HEPG2TOX_R_SQUARED 0.624, PBLUC_HILL_SLOPE 0.618, PBLUC_R_SQUARED 0.897, read-out: LUCIFERASE INFECTION ASSAY - IC50): 6.80
Oc1cccc(-c2cnc3cnc(-c4ccc(CNc5ccccc5)cc4)cn23)c1	2.92 µM	pIC50 (FFLUC_HILL_SLOPE 1.01, FFLUC_R_SQUARED 0.213, PBLUC_HILL_SLOPE 39.2, PBLUC_R_SQUARED 0.71, read-out: LUCIFERASE INFECTION ASSAY - IC50): 5.56
CCCn1c(C)cc(C(=O)COC(=O)C2=COCCO2)c1C	> 10 µM	pIC50 (FFLUC_HILL_SLOPE 0.919, FFLUC_R_SQUARED 0.757, PBLUC_HILL_SLOPE 0.614, PBLUC_R_SQUARED 0.12, read-out: LUCIFERASE INFECTION ASSAY - IC50): 6.08
Cc1ccc2nc(-c3ccc(N(C)C)cc3)[nH]c2c1	5.96 µM	pIC50 (FFLUC_HILL_SLOPE 0.944, FFLUC_R_SQUARED 0.925, PBLUC_HILL_SLOPE 0.907, PBLUC_R_SQUARED 0.785, read-out: LUCIFERASE INFECTION ASSAY - IC50): 6.28
Cc1nc2ccccc2nc1SCC(=O)c1ccc(NS(C)(=O)=O)cc1	> 10 µM	pIC50 (FFLUC_HILL_SLOPE 1.05, FFLUC_R_SQUARED 0.177, HEPG2TOX_HILL_SLOPE 1.12, HEPG2TOX_R_SQUARED 0.682, read-out: LUCIFERASE INFECTION ASSAY - IC50): < 5.00
Cc1cc(C)cc(Nc2nc(=O)c(Cc3ccc(Cl)cc3)n[nH]2)c1	8.45 µM	pIC50 (FFLUC_HILL_SLOPE 1.04, FFLUC_R_SQUARED 0.238, PBLUC_HILL_SLOPE 2.61, PBLUC_R_SQUARED 0.421, read-out: LUCIFERASE INFECTION ASSAY - IC50): 5.44
CCCCCN1C(=O)/C(=N\n2c(-c3ccc(Cl)c(Cl)c3)cs/c2=N\c2cccc(C)c2C)c2ccccc21	> 10 µM	pIC50 (FFLUC_HILL_SLOPE 0.963, FFLUC_R_SQUARED 0.82, HEPG2TOX_HILL_SLOPE 0.0725, HEPG2TOX_R_SQUARED 0.0443, PBLUC_HILL_SLOPE 3.87, PBLUC_R_SQUARED 0.467, read-out: LUCIFERASE INFECTION ASSAY - IC50): 5.22
Cn1c(NCC2CC2)nc2cnc(-c3ccc4ccccc4c3)cc21	2.07 µM	pIC50 (FFLUC_HILL_SLOPE 1.05, FFLUC_R_SQUARED 0.583, HEPG2TOX_HILL_SLOPE 31.1, HEPG2TOX_R_SQUARED 0.421, PBLUC_HILL_SLOPE 0.605, PBLUC_R_SQUARED 0.735, read-out: LUCIFERASE INFECTION ASSAY - IC50): 7.26
Cc1sc2ncn(/N=C/c3ccc(N(c4ccccc4)c4ccccc4)cc3)c(=O)c2c1C	4.02 µM	pIC50 (FFLUC_HILL_SLOPE 0.996, FFLUC_R_SQUARED 0.715, HEPG2TOX_HILL_SLOPE 1.1, HEPG2TOX_R_SQUARED 0.992, PBLUC_HILL_SLOPE 2.81, PBLUC_R_SQUARED 0.433, read-out: LUCIFERASE INFECTION ASSAY - IC50): 5.74
CCN(CC)S(=O)(=O)c1cccc(NC(=O)c2sc(Nc3ccc(C)cc3C)c(C(=O)NC(C)COC)c2N)c1 (stereo not given)	> 10 µM	pIC50 (FFLUC_HILL_SLOPE 0.973, FFLUC_R_SQUARED 0.376, read-out: LUCIFERASE INFECTION ASSAY - IC50): < 5.00
OC1CCN(c2nn3cc(-c4ccccc4)nc3s2)CC1	0.954 µM	pIC50 (FFLUC_HILL_SLOPE 1.04, FFLUC_R_SQUARED 0.865, PBLUC_HILL_SLOPE 0.617, PBLUC_R_SQUARED 0.864, read-out: LUCIFERASE INFECTION ASSAY - IC50): 7.57
Cc1ccccc1-n1c(SCc2nc3ccccc3c(=O)n2CC#N)nnc1-c1ccc(C(C)(C)C)cc1	> 10 µM	pIC50 (FFLUC_HILL_SLOPE 0.956, FFLUC_R_SQUARED 0.529, read-out: LUCIFERASE INFECTION ASSAY - IC50): < 5.00
O=C(Nc1ccc(N2CCCC2)cn1)C1CC=CCC1 (stereo not given)	0.636 µM	pIC50 (FFLUC_HILL_SLOPE 1.03, FFLUC_R_SQUARED 0.671, HEPG2TOX_HILL_SLOPE 1.03, HEPG2TOX_R_SQUARED 0.932, PBLUC_HILL_SLOPE 1.27, PBLUC_R_SQUARED 0.726, read-out: LUCIFERASE INFECTION ASSAY - IC50): 6.95
O=C(Nc1nc2ccc(OC(F)(F)F)cc2s1)c1cnccn1	3.41 µM	pIC50 (FFLUC_HILL_SLOPE 1.04, FFLUC_R_SQUARED 0.266, PBLUC_HILL_SLOPE 101, PBLUC_R_SQUARED 0.2, read-out: LUCIFERASE INFECTION ASSAY - IC50): 5.48
O=C1C(=O)N(Cc2ccccc2F)c2c1cccc2C(F)(F)F	> 10.2 µM	pIC50 (FFLUC_HILL_SLOPE 1.03, FFLUC_R_SQUARED 0.0461, HEPG2TOX_HILL_SLOPE 15.2, HEPG2TOX_R_SQUARED 0.946, PBLUC_HILL_SLOPE 1.65, PBLUC_R_SQUARED 0.631, read-out: LUCIFERASE INFECTION ASSAY - IC50): 5.53
Cc1c(S(=O)(=O)c2ccc(Cl)cc2)csc1C(=O)Nc1ccccc1Cl	> 7.74 µM	pIC50 (FFLUC_HILL_SLOPE 0.988, FFLUC_R_SQUARED 0.0286, PBLUC_HILL_SLOPE 1.65, PBLUC_R_SQUARED 0.324, read-out: LUCIFERASE INFECTION ASSAY - IC50): 5.16
O=C(Nc1ccccc1)c1ccc(CN2CCC(O)CC2)cc1	> 10 µM	pIC50 (FFLUC_HILL_SLOPE 0.964, FFLUC_R_SQUARED 0.857, PBLUC_HILL_SLOPE 0.791, PBLUC_R_SQUARED 0.696, read-out: LUCIFERASE INFECTION ASSAY - IC50): 5.98
Cc1ccc(-n2nc(-c3ccc(OC(F)(F)F)cc3)cc2NC(=O)Nc2ccc(OC(F)(F)F)cc2)cc1C	> 6 µM	pIC50 (FFLUC_HILL_SLOPE 0.93, FFLUC_R_SQUARED 0.122, PBLUC_HILL_SLOPE 17.9, PBLUC_R_SQUARED 0.245, read-out: LUCIFERASE INFECTION ASSAY - IC50): 5.22
O=C(Nc1ccccc1)c1cc(Nc2ccc(O)cc2)ncn1	> 10.8 µM	pIC50 (FFLUC_HILL_SLOPE 0.974, FFLUC_R_SQUARED 0.921, PBLUC_HILL_SLOPE 1.57, PBLUC_R_SQUARED 0.726, read-out: LUCIFERASE INFECTION ASSAY - IC50): 5.28
O=[N+]([O-])c1cnc(Sc2nnc(SCc3cccc(C(F)(F)F)c3)s2)s1	> 7.56 µM	pIC50 (FFLUC_HILL_SLOPE 0.915, FFLUC_R_SQUARED 0.422, read-out: LUCIFERASE INFECTION ASSAY - IC50): < 5.12
O=[N+]([O-])c1ccc2c(c1)S(=O)(=O)CC2Sc1cccs1 (stereo not given)	> 10.1 µM	pIC50 (FFLUC_HILL_SLOPE 0.919, FFLUC_R_SQUARED 0.527, PBLUC_HILL_SLOPE 1.82, PBLUC_R_SQUARED 0.11, read-out: LUCIFERASE INFECTION ASSAY - IC50): < 5.00
CN1CCN(C(c2ccccn2)c2c(-c3ccccc3)n(O)c3ccccc23)CC1 (stereo not given)	> 10 µM	pIC50 (FFLUC_HILL_SLOPE 1.05, FFLUC_R_SQUARED 0.622, read-out: LUCIFERASE INFECTION ASSAY - IC50): < 5.00
COc1ccnc(Nc2ccc3c(c2)nc2n3CCCCC2)n1	2.84 µM	pIC50 (FFLUC_HILL_SLOPE 0.925, FFLUC_R_SQUARED 0.902, HEPG2TOX_HILL_SLOPE 18.6, HEPG2TOX_R_SQUARED 0.895, PBLUC_HILL_SLOPE 0.753, PBLUC_R_SQUARED 0.781, read-out: LUCIFERASE INFECTION ASSAY - IC50): 6.81
Cc1ccc(-c2nnc(SCC(=O)c3c(N)n(C)c(=O)n(C)c3=O)nc2-c2ccc(C)cc2)cc1	> 10 µM	pIC50 (FFLUC_HILL_SLOPE 1.03, FFLUC_R_SQUARED 0.511, read-out: LUCIFERASE INFECTION ASSAY - IC50): < 5.00
Cc1cccc2nc(C(=O)Nc3ccc4c(c3)nc3n4CCCCC3)cn12	> 10 µM	pIC50 (FFLUC_HILL_SLOPE 1.04, FFLUC_R_SQUARED 0.903, PBLUC_HILL_SLOPE 0.368, PBLUC_R_SQUARED 0.555, read-out: LUCIFERASE INFECTION ASSAY - IC50): 6.80
